What was measured:
human D4R = target: T1, human D4R (Homo sapiens, UniProt P21917); experiment: PatHunter beta-arrestin assay at human D4R; type: cell-based; conditions: 10 μM compound
T1 construct: host or cells: cells supplied with the PatHunter Beta-arrestin eXpress GPCR assay kit
T1 sequence (P21917 1-419): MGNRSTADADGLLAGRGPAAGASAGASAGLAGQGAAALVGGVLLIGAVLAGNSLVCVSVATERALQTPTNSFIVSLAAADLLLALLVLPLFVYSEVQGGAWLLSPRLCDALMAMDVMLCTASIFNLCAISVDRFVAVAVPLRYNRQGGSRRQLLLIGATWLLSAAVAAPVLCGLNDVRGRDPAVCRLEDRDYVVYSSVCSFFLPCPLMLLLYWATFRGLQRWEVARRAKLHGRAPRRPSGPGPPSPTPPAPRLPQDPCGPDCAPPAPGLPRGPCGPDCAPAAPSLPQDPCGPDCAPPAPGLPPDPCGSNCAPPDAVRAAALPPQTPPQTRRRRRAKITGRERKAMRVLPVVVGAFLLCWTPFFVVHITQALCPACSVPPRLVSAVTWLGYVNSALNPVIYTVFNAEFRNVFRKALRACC
Method: Functional studies at both human D3 and D4 receptors were carried out in human D3 and D4 receptors, using a PatHunter Beta-arrestin eXpress GPCR assay kit from DiscoverX. Briefly, cells were plated and maintained for 48 h at 37 °C in a 5% CO2 atmosphere in cell plating reagent provided in the kit. After this time, test compounds were added to the cells and incubated for 30 min at 37 °C. Dopamine was added to the cells and incubated for an additional 90 min at 37 °C. Cells were then treated with the working detection solution provided with the kit for 1 h and beta-arrestin translocation was measured by luminescence detection (integration time = 500 ms) in a Tecan M1000 Genius Pro reader. Data were normalized to dopamine maximum effect and fitted to a 4-parameter logistic equation using Prism v2.1 software (GraphPad Inc).

[1] = target: T2, human serum albumin (HSA) (Homo sapiens, UniProt P02768); experiment: HSA binding assay (TRANSIL XL); type: in vitro ADME; conditions: for HSA binding (%): at a concentration of 5 μM
T2 construct: purchased Sovicell TMP-0210-2096
T2 sequence (P02768 25-609): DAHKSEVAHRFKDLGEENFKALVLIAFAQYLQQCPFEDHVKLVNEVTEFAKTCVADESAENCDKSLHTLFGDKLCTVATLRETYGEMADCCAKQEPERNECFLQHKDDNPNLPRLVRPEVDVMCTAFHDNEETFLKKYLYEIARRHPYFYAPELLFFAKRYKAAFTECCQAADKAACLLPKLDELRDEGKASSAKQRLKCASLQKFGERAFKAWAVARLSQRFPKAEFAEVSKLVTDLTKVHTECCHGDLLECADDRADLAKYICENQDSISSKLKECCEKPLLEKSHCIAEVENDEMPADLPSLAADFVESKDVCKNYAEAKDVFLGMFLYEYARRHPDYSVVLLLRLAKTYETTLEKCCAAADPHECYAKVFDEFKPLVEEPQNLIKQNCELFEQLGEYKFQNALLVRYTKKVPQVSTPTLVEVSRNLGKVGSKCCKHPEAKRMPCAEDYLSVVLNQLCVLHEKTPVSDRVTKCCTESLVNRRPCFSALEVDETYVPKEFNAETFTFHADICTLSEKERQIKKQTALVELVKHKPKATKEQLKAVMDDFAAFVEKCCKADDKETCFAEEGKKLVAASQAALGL
Method: HSA binding assay. The assessment of compounds binding to HSA was performed by incubating a fixed concentration of the compound with different concentrations of immobilized HSA, using the TRANSILXL HSA Binding Kit (TMP-0210- 2096, Sovicell). An 8-well unit of the TRANSIL assay plate was used for each compound : six wells contain increasing concentrations of HSA immobilized on silica beads suspended in PBS at pH 7.4, and two wells contain buffer only and serve as references to account for nonspecific binding. The TRANSIL assay plate was thawed for 3 h at rt and centrifuged at 750g for 5 s. Then, 15 μ L of an 80 μ M stock solution of the compound in PBS (for a final concentration of 5 μ M) were added to each well of the 8-well unit, and the plate was incubated on a plate shaker at 1000 rpm for 12 min at rt. After this time, the plate was centrifuged at 750gfor 10 min, and 50 μL of the supernatants were transferred for analytical quantification by HPLC-MS using selected ion monitoring (SIM). The binding percentage was calculated from the remaining free compound concentration in the supernatant of each well, using the spreadsheet and algorithms supplied with the kit.
Stability in mouse serum. Stability for selected compounds and reference compound enalapril was assayed by adding 625 μL of a 250 μM solution of test compound in PBS pH 7.4 to 1.875 mL of mouse serum (Europa Bioproducts, EQSM-0100) pre-warmed a t 37 °C. Next, solutions were incubated at 37 °C for 4 h, taking aliquots of 250 μL at t = 0, 1, 2, 3, and 4 h. Each aliquot was quenched in 375 μL of cold ACN, vortexed, incubated for 10 min in ice and centrifuged at 39000g for 10 min. Supernatants were then analyzed by HPLC-MS using SIM mode, and quantification was estimated by using the peak area integration normalized with an internal standard.
Stability assay in mouse liver homogenate. Stability of test compounds and reference compound propranolol was determined by incubation in liver homogenates following previously reported procedure. […]

stability in mouse serum = type: in vitro ADME; conditions: remaining compound after 4 h
human dopamine D1R = target: T3, human dopamine D1R (Homo sapiens, UniProt P21728); experiment: radioligand binding assay with [3H]SCH23390 at human D1R membranes
T3 construct: purchased Perkin Elmer
T3 sequence (P21728 whole entry): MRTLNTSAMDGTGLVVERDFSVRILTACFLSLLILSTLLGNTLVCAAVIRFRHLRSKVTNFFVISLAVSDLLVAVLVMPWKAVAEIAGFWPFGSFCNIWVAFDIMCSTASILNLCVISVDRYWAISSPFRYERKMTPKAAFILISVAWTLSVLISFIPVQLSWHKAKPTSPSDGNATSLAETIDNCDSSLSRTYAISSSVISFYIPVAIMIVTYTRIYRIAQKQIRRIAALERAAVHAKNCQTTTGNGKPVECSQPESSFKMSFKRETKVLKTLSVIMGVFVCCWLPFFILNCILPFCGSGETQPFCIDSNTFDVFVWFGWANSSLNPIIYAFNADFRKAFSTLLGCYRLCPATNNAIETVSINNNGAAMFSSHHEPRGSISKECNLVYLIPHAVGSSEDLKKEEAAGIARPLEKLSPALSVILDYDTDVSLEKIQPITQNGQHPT
Method: Binding assays were carried out by using plasma membranes (12 μg/well) expressing human dopamine D1R (Perkin Elmer). […] After this time, the well content was filtered through a Millipore manifold and membranes were washed four times with assay buffer. The plate was dried and radioactivity was measured in a Microbeta Trilux liquid scintillation reader (Perkin Elmer). Non-specific binding was determined in the presence of 1 μM (+)-butaclamol. Data were normalized to the percentage of specific binding and fitted to a 4-parameter logistic equation using with Prism v2.1 software (GraphPad Inc). For the calculation of the affinity ratio of DA in the presence of the allosteric modulators, data were fitted according to the equations reported by Lazareno and Birdsall.[44]

human D1R = target: T4, human D1R (Homo sapiens, UniProt P21728); experiment: potentiator-mode cAMP assay (HTRF) in SK-N-MC neuroblastoma cells endogenously expressing human D1R; type: cell-based; conditions: for potentiation of DA effect at different fixed concentrations: 3: 0.1–10 μM, 26: 1, 5 and 10 μM; for cAMP response in the absence of DA (agonist activity): no DA
T4 construct: endogenously expressed human D1R in the SK-N-MC cell line (ATCC); host or cells: SK-N-MC human neuroblastoma cells
T4 sequence (P21728 whole entry): as above

Row | Kd ([1]; read-out: HSA dissociation constant Kd) [µM] | melting point [°C] | reversibility of the potentiation (human D1R; 10 μM for 10 min then washing with assay buffer) | SMILES | enhancement of DA Emax at human D4 receptor (human D4R) | HSA binding (%) [1] [%] | mouse serum stability (%) (stability in mouse serum) | displacement of the radioligand [3H]SCH-23390 (human dopamine D1R; at 10 μM) [%] | potentiation of DA effect at different fixed concentrations (human D1R) | cAMP response in the absence of DA (agonist activity) (human D1R) | affinity ratio of [3H]SCH-23390 (human dopamine D1R; in the presence of 4 μM DA) | receptor desensitization (human D1R; preincubation for 1 h with 10 μM compound)
1 | – | – | – | O=Cc1ccc(-c2ccccc2OCF)cc1 [Compound 3, 2′-(Fluoromethoxy)[1,1′-biphenyl]-4-carbaldehyde] | did not enhance DA Emax | > 99 | 50 | 12 | concentration-dependent potentiation of DA effect | No cAMP response | – | –
2 | 156 | 144 to 145 | reversible effect | CS(=N)(=O)c1ccc(-c2ccccc2OCF)cc1 (stereo not shown) [Compound 26, 2-(Fluoromethoxy)-4′-(S-methanesulfonimidoyl)-1,1′-biphenyl] | subtype selectivity | 79 | 93 | – | potentiation of the DA Emax in a concentration-dependent manner | no cAMP response | concentration-dependent increase of the affinity ratio values | does not induce receptor desensitization

Reference: PMC9511493, “2-(Fluoromethoxy)-4′-(S-methanesulfonimidoyl)-1,1′-biphenyl (UCM-1306), an Orally Bioavailable Positive Allosteric Modulator of the Human Dopamine D1 Receptor for Parkinson’s Disease” (Journal of Medicinal Chemistry, 2022)
